# Results from patent US20250127773A1, “MODULATORS OF THE BETA-3 ADRENERGIC RECEPTOR USEFUL FOR THE TREATMENT OR PREVENTION OF HEART FAILURE” (Arena Pharmaceuticals, Inc., priority 2021, published 2025).
# Target: T1, Beta-3 Adrenergic Receptor (Homo sapiens, UniProt P13945)
# T1 construct: expressed in transfected cells; host or cells: CHO-K1
# Assay: HTRF cAMP antagonist assay, IC50 determination
# Type: cell-based
# Details: CHO-K1 cells stably expressing recombinant receptor; vs isoproterenol at EC90; unit nM
# Protocol: HTRF CAMP assays were performed according to manufacturer's instructions (Cisbio, CAMP Dynamic 2 Assay Kit; #62AM4PEJ). CHO-K1 cells stably expressing recombinant receptor were harvested and suspended in warm PBS to make a 300,000 cells/mL stock. This cell suspension was dispensed into 384 well assay plates (PerkinElmer ProxiPlate #6008280) at 5 μL per well (1500 cells/well) along with a CAMP standard curve.
# Compounds were dissolved and serially diluted (5-fold) in DMSO to generate a 10-point dose response stock. […] After a brief incubation, 2.5 μL of isoproterenol stock, prepared at a concentration 4 times its EC90 at the receptor of interest, was added to the wells. The EC90 for isoproterenol, a beta-adrenergic agonist, was determined in separate experiments using standard methods to measure agonist potencies.
# Following a 1-hour incubation at room temperature, 5 μL of CAMP-D2 Reagent diluted in Lysis Buffer was added to each well followed by 5 μL of Cryptate Reagent. Plates were further incubated at room temperature for 1 hour prior to reading. Time resolved fluorescence measurements were collected on a suitable, HTRF-capable plate reader.
# Counts from the plate reader were fit to the CAMP standard curve on the assay plate in order to determine cAMP concentrations in each well, and these values were used to construct dose-response curves to obtain IC50 values.
# T1 sequence (P13945 whole entry): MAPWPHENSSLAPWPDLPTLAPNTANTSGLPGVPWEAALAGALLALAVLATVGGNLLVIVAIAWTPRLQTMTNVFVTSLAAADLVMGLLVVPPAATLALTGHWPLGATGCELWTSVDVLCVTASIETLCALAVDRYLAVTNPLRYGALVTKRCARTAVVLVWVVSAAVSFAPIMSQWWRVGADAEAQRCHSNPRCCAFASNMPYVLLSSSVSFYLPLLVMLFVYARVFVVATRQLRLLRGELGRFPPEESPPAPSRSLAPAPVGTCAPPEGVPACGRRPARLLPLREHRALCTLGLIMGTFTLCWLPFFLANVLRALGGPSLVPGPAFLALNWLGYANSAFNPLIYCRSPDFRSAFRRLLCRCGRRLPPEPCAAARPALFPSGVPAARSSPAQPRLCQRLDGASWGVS
row,IC50,Structure (SMILES)
1,155 nM,"CCOCCNS(=O)(=O)c1cccc(OCC(O)CNC2COC3(CCN(S(=O)(=O)c4ccc5ccccc5c4)CC3)C2)c1 [Compound B47, NV-(2-ethoxyethyl)-3-((2S)-2-hydroxy-3-(8-(naphthalen-2-ylsulfonyl)-1-oxa-8-azaspiro[4.5]decan-3-ylamino)propoxy)benzenesulfonamide]"
2,57.7 nM,"CNS(=O)(=O)c1cccc(OCC(O)CNC2COC3(CCN(S(=O)(=O)c4cccc(-c5cnn(C)c5)c4)CC3)C2)c1 [Compound B216, 3-((S)-2-hydroxy-3-((S)-8-(3-(1-methyl-1H-pyrazol-4-yl)phenylsulfonyl)-1-oxa-8-azaspiro[4.5]decan-3-ylamino)propoxy)-N-20 methylbenzenesulfonamide]"

row,Structure (SMILES),IC50
1,"C[C@@H](NS(=O)(=O)c1cccc(OC[C@@H](O)CNC2COC3(CCN(S(=O)(=O)c4ccc5ccccc5c4)CC3)C2)c1)C1CC1 (stereo partly drawn) [Compound B93, N—((R)-1-cyclopropylethyl)-3-((2S)-2-hydroxy-3-(8-(naphthalen-2-ylsulfonyl)-1-oxa-8-25 azaspiro[4.5]decan-3-ylamino)propoxy)benzenesulfonamide]",112 nM
